# Assay results published in patent US11761966B2, “Nourin gene-based RNA molecular network: novel early diagnostic and prognostic biomarkers for coronary artery disease, unstable angina, STEMI/NSTEMI and heart failure” (Nour Heart, Inc., priority 2018, dated 2023).
# “Also recorded” adds a separate entry of the source.
# Legend:
# [1] = test system: intact canine model of cold cardioplegic arrest; assay: Intact canine model of cold cardioplegic arrest and aortic cross-clamping (bypass); format: in vivo, dog
# Experimental: Dogs were injected intravenously with saline or CCr (500 mg/kg) for 1 hour before initiating the experiment.
# Atrial fibrillation (AF) induces cardiac structural remodeling and there is a need to develop more mechanism-directed AF therapies that use the mitochondria as a novel potential therapeutic target in AF.
# Yorkshire pigs = assay: Aortic cross-clamping for 30 minutes in Yorkshire pigs (paraplegia); format: in vivo, pig; conditions: 30 minutes aortic cross-clamping, 4 days survival
# Description: The relationship between hypoxia and AD could open the avenue for effective preservation and pharmacological treatments of this neurodegenerative disease by using new therapeutic drugs like the novel bioenergetic drug, CCrP. CCrP provides protection of heart muscle against ischemic injury in CAD, UA, AMI, HF and cardiac surgical patients and thus save ischemic muscles from progressing to necrosis and heart failure, and will be protective against ischemic injury in stroke and AD. […] Since paraplegia following surgery of the descending thoracic aorta is a serious complication in adult and pediatric surgery, we tested the neuroprotective effect of Cyclocreatine in Yorkshire pigs which underwent 30 minutes of aortic cross-clamping then left to survive for 4 days. […] As indicated in Example 17, similar to heart tissue (Nourin-1), Nourin protein was quickly released within 5 minutes by brain (Nourin-2) and spinal cord (Nourin-3) in response to ischemia. Because of the great similarities between heart and brain and that they are both require high demand of ATP, CCrP will be as effective in preventing ischemic injury and restoring neurologic function in stroke and AD, similar to HF.
# [2] = test system: non-heartbeating dog model of heart transplantation; assay: Non-heartbeating dog model of heart transplantation (warm ischemic arrest, ex vivo perfusion); format: in vivo
# Experimental: Dog hearts underwent 1 hour of global warm ischemic arrest then hearts were explanted and perfused ex vivo for an additional 4 hours with a cold lactated ringers solution containing Cyclocreatine, while control hearts received cold lactated ringers solution alone. […] Similarly, the myocardium of the CCr dog maintained a tissue pH of 7.04±0.1 during the warm ischemia period of 1 hour and throughout the ex vivo perfusion interval, which was close to its baseline level of 7.11. On the other hand, tissue pH in control hearts fell to a nadir of 6.00±0.25 during the induction of warm ischemia and never returned back to baseline levels during the ex vivo preservation period.
# [3] = Crossing of the blood-brain barrier
# [4] = test system: intact AMI dog model of LAD occlusion; assay: Intact AMI dog model of LAD occlusion for 1 hour followed by reperfusion for 2 hours; format: in vivo; conditions: for myocardial cell injury (histology): vs control (saline) group
# Experimental: During ischemia, myocardial ATP levels decrease by 65% at 15 minutes and by 90% at 40 minutes, thus contractile performance in vivo decreases precipitously and ceases when only 20% of ATP and 75% of creatine phosphate are depleted. […] ATP synthesis continued during ischemia and its depletion was delayed resulting in over 85% preservation of pre-ischemic ATP level with a loss of only 15%, and 97% preservation of the CrP (loss of 3%) during ischemia. This significant preservation is crucial since ATP depletion of more than 20% ceases contractility. Control saline-treated hearts maintained only 66% of the ATP, with a loss of 34%, resulting in loss of reperfusion cardiac contractility. […] On the other hand, contractile function of control saline dogs was ceased completely after LAD occlusion and never recovered during reperfusion.
smiles,measurement,setting,value
NC1=NCCN1CC(=O)O [Cyclocreatine],"post-bypass cardiac output, of the baseline function","[1]; CCr 500 mg/kg IV, throughout 4 hours of reperfusion, control 60%",over 90%
same,resumption of contractility during reperfusion,"[1]; all control dogs required defibrillation, listed as CCr",without arrhythmias; also recorded: without the need for defibrillation
same,ability to stand and walk,Yorkshire pigs,Majority of Cyclocreatine-treated animals were able to stand and walk
same,myocardial tissue pH,"[2]; 1 hour warm ischemia and ex vivo perfusion, baseline 7.11, control nadir 6.00±0.25",7.04±0.1
same,time to stop beating and develop asystole,"[2]; after exsanguination, control average 2 minutes",9 min
same,intracellular edema (diffusion weighted MRI),[2]; compared to control,Reduced intracellular edema
same,myocardial tissue lactic acidosis (spectroscopic MRI),[2]; compared to control,Reduced myocardial tissue lactic acidosis
same,cell injury marker Malondialdehyde,[2]; compared to controls,Reduced level
same,myocardial ATP content,[2]; compared to controls,Three-fold increase
same,"reduction of Caspase enzyme activities, of baseline",[2]; control dogs 3.86-fold increase over baseline,25%
same,crossing of the blood-brain barrier,[3],crosses the blood-brain barrier; also recorded: crosses the blood brain barrier
same,preservation of pre-ischemic ATP level,"[4]; CCr 60 minutes before LAD occlusion for 1 hour, saline 66%",over 85%
same,loss of ATP,"[4]; CCr 60 minutes before LAD occlusion, saline 34%",15%
same,neutrophil accumulation into the myocardium,[4]; at the end of 2 hours reperfusion,reduces neutrophil accumulation
same,loss of CrP,[4]; during ischemia,3%
same,preservation of the CrP,[4]; during ischemia,97%
same,circulating Nourin protein in plasma,[4]; during the 2 hour reperfusion,inhibiting the levels of circulating Nourin protein
same,contractile function restored,[4]; immediately at reperfusion and for an additional 2 hours,over 80%
same,myocardial cell injury (histology),[4],significantly reduced myocardial cell injury
same,myocardial cell injury (histology),[4]; listed as CCr,markedly less myocardial cell injury
